According to ChEMBL document CHEMBL1201861, “Genomics of Drug Sensitity in Cancer screening data, Wellcome Trust Sanger Institute”:

Tests used:
Assay in all cases: cells
Details in all cases: Homo sapiens
A388 = type: functional, cell-based;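 also: growth inhibition of human A388 cells, read out with a cell viability assay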
Description: SANGER: Inhibition of human A388 cell growth in a cell viability assay.

RPMI-8866 = type: functional, cell-based
Description: SANGER: Inhibition of human RPMI-8866 cell growth in a cell viability assay.

ES3 = type: functional, cell-based;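 also: growth inhibition of ES3 cells, read out with a cell viability assay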
Description: SANGER: Inhibition of human ES3 cell growth in a cell viability assay.

KLE = type: functional, cell-based;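 also: growth inhibition of human KLE cells, read out with a cell viability assay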
Description: SANGER: Inhibition of human KLE cell growth in a cell viability assay.

HT = type: functional, cell-based
Description: SANGER: Inhibition of human HT cell growth in a cell viability assay.

GI-1 = type: functional, cell-based;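 also: growth inhibition of human GI-1 cells, measured with a cell viability readout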
Description: SANGER: Inhibition of human GI-1 cell growth in a cell viability assay.

LXF-289 cell line = type: functional, cell-based
Description: SANGER: Inhibition of human LXF-289 cell growth in a cell viability assay.

TE-10 = type: functional, cell-based;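 also: growth inhibition of TE-10 cells, measured by a cell viability assay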
Description: SANGER: Inhibition of human TE-10 cell growth in a cell viability assay.

COLO-824 = type: functional, cell-based
Description: SANGER: Inhibition of human COLO-824 cell growth in a cell viability assay.

ES1 = type: functional, cell-based;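 also: growth inhibition of ES1 cells, read out with a cell viability assay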
Description: SANGER: Inhibition of human ES1 cell growth in a cell viability assay.

BB30-HNC = type: functional, cell-based;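 also: growth inhibition of the cultured cell line, read out by a cell viability assay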
Description: SANGER: Inhibition of human BB30-HNC cell growth in a cell viability assay.

QIMR-WIL = type: functional, cell-based;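 also: growth inhibition of QIMR-WIL cells, read out with a cell viability assay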
Description: SANGER: Inhibition of human QIMR-WIL cell growth in a cell viability assay.

KM12 = type: functional, cell-based;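 also: KM12 cell growth inhibition, read out with a cell viability assay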
Description: SANGER: Inhibition of human KM12 cell growth in a cell viability assay.

DU-4475 = type: functional, cell-based
Description: SANGER: Inhibition of human DU-4475 cell growth in a cell viability assay.

SK-PN-DW = type: functional, cell-based;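 also: growth inhibition measured with a viability assay on these cells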
Description: SANGER: Inhibition of human SK-PN-DW cell growth in a cell viability assay.

697 = type: functional, cell-based
Description: SANGER: Inhibition of human 697 cell growth in a cell viability assay.

COLO-829 = type: functional, cell-based
Description: SANGER: Inhibition of human COLO-829 cell growth in a cell viability assay.

Ramos-2G6-4C10 = type: functional, cell-based;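 also: growth inhibition of the cell line, measured by a cell viability read-out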
Description: SANGER: Inhibition of human Ramos-2G6-4C10 cell growth in a cell viability assay.

HCE-T = type: functional, cell-based;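 also: cell viability assay read-out, reporting inhibition of HCE-T cell growth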
Description: SANGER: Inhibition of human HCE-T cell growth in a cell viability assay.

GT3TKB = type: functional, cell-based;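 also: growth inhibition of the cell line, read out with a cell viability assay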
Description: SANGER: Inhibition of human GT3TKB cell growth in a cell viability assay.

LS-1034 = type: functional, cell-based
Description: SANGER: Inhibition of human LS-1034 cell growth in a cell viability assay.

A101D = type: functional, cell-based;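 also: growth inhibition of the cell line, measured with a viability assay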
Description: SANGER: Inhibition of human A101D cell growth in a cell viability assay.

KNS-81-FD = type: functional, cell-based;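 also: growth inhibition of KNS-81-FD cells, read out with a cell viability assay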
Description: SANGER: Inhibition of human KNS-81-FD cell growth in a cell viability assay.

L-428 = type: functional, cell-based
Description: SANGER: Inhibition of human L-428 cell growth in a cell viability assay.

UACC-257 = type: functional, cell-based
Description: SANGER: Inhibition of human UACC-257 cell growth in a cell viability assay.

ES4 = type: functional, cell-based;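 also: growth inhibition of human ES4 cells, read out by a cell viability assay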
Description: SANGER: Inhibition of human ES4 cell growth in a cell viability assay.

CCRF-CEM = type: functional, cell-based;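 also: inhibition of CCRF-CEM cell growth, measured by a cell viability assay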
Description: SANGER: Inhibition of human CCRF-CEM cell growth in a cell viability assay.

LS-411N = type: functional, cell-based
ONS-76 = type: functional, cell-based;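 also: growth inhibition of human ONS-76 cells, read out with a cell viability assay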
Description: SANGER: Inhibition of human ONS-76 cell growth in a cell viability assay.

ML-2 = type: functional, cell-based;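 also: growth inhibition of ML-2 cells, measured with a cell viability readout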
Description: SANGER: Inhibition of human ML-2 cell growth in a cell viability assay.

SNU-C2B = type: functional, cell-based;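 also: cell viability readout used to measure compound-driven suppression of SNU-C2B cell proliferation, IC50 marking half-maximal growth inhibition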
Description: SANGER: Inhibition of human SNU-C2B cell growth in a cell viability assay.

LB831-BLC = type: functional, cell-based;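 also: growth inhibition of LB831-BLC cells, read out with a cell viability assay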
Description: SANGER: Inhibition of human LB831-BLC cell growth in a cell viability assay.

MHH-PREB-1 = type: functional, cell-based;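 also: cell viability assay measuring inhibition of proliferation of human MHH-PREB-1 cells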
Description: SANGER: Inhibition of human MHH-PREB-1 cell growth in a cell viability assay.

SF-126 = type: functional, cell-based;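 also: growth inhibition of human SF126 cells, read out with a cell viability assay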
Description: SANGER: Inhibition of human SF126 cell growth in a cell viability assay.

MMAC-SF = type: functional, cell-based;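 also: growth inhibition of human MMAC-SF cells, read out with a cell viability assay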
Description: SANGER: Inhibition of human MMAC-SF cell growth in a cell viability assay.

HuTu80 = type: functional, cell-based, HUTU-80;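 also: growth inhibition of HuTu80 human cells, determined with a cell viability readout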
Description: SANGER: Inhibition of human HUTU-80 cell growth in a cell viability assay.

K562 = type: functional, cell-based
Description: SANGER: Inhibition of human K-562 cell growth in a cell viability assay.

HCE-4 = type: functional, cell-based;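 also: cell viability assay measuring inhibition of growth in the human HCE-4 cell line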
Description: SANGER: Inhibition of human HCE-4 cell growth in a cell viability assay.

C2BBe1 = type: functional, cell-based;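 also: growth inhibition of C2BBe1 cells, read out through a viability assay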
Description: SANGER: Inhibition of human C2BBe1 cell growth in a cell viability assay.

COLO-668 = type: functional, cell-based
Description: SANGER: Inhibition of human COLO-668 cell growth in a cell viability assay.

NB5 = type: functional, cell-based;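 also: growth inhibition of NB5 cells, read out as cell viability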
Description: SANGER: Inhibition of human NB5 cell growth in a cell viability assay.

TK-10 = type: functional, cell-based;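 also: growth inhibition of TK-10 cells, read out in a cell viability assay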
Description: SANGER: Inhibition of human TK10 cell growth in a cell viability assay.

NCI-H1395 = type: functional, cell-based;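 also: cell viability assay read-out quantifying reduced proliferation of human NCI-H1395 cells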
Description: SANGER: Inhibition of human NCI-H1395 cell growth in a cell viability assay.

A4-Fuk = type: functional, cell-based;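 also: growth inhibition of A4-Fuk cells, read out by a cell viability assay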
Description: SANGER: Inhibition of human A4-Fuk cell growth in a cell viability assay.

DOHH-2 = type: functional, cell-based;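 also: growth inhibition of human DOHH-2 cells, read out with a cell viability assay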
Description: SANGER: Inhibition of human DOHH-2 cell growth in a cell viability assay.

BB65-RCC = type: functional, cell-based;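 also: growth inhibition of the cell line, measured with a cell viability assay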
Description: SANGER: Inhibition of human BB65-RCC cell growth in a cell viability assay.

SNB-75 = type: functional, cell-based;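 also: cell viability assay measuring growth inhibition of human SNB-75 cells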
Description: SANGER: Inhibition of human SNB75 cell growth in a cell viability assay.

NB69 = type: functional, cell-based;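 also: growth inhibition of NB69 cells, determined by a cell viability assay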
Description: SANGER: Inhibition of human NB69 cell growth in a cell viability assay.

LOX IMVI = type: functional, cell-based
Description: SANGER: Inhibition of human LOXIMVI cell growth in a cell viability assay.

OCI-AML2 = type: functional, cell-based;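 also: growth inhibition of OCI-AML2 cells, read out with a cell viability assay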
Description: SANGER: Inhibition of human OCI-AML2 cell growth in a cell viability assay.

KM-H2 = type: functional, cell-based;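 also: growth inhibition of KM-H2 cells, read out by a cell viability assay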
Description: SANGER: Inhibition of human KM-H2 cell growth in a cell viability assay.

ACN = type: functional, cell-based;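 also: growth inhibition of the human ACN cell line, read out via cell viability testing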
Description: SANGER: Inhibition of human ACN cell growth in a cell viability assay.

TGBC24TKB = type: functional, cell-based;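 also: growth inhibition of human TGBC24TKB cells, read out with a cell viability assay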
Description: SANGER: Inhibition of human TGBC24TKB cell growth in a cell viability assay.

MFH-ino = type: functional, cell-based;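 also: growth inhibition of human MFH-ino cells, read out by a cell viability assay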
Description: SANGER: Inhibition of human MFH-ino cell growth in a cell viability assay.

ETK-1 = type: functional, cell-based;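 also: growth inhibition of human ETK-1 cells, read out with a cell viability assay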
Description: SANGER: Inhibition of human ETK-1 cell growth in a cell viability assay.

NCI-H226 = type: functional, cell-based;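 also: cell viability read-out used to gauge growth inhibition of the cells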
Description: SANGER: Inhibition of human NCI-H226 cell growth in a cell viability assay.

LB1047-RCC = type: functional, cell-based;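 also: inhibition of cell growth, determined with a cell viability assay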
Description: SANGER: Inhibition of human LB1047-RCC cell growth in a cell viability assay.

NB6 = type: functional, cell-based
Description: SANGER: Inhibition of human NB6 cell growth in a cell viability assay.

U-87 MG = type: functional, cell-based, U-87MG ATCC;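 also: growth inhibition of the cells measured with a viability assay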
Description: SANGER: Inhibition of human U-87-MG cell growth in a cell viability assay.

IA-LM = type: functional, cell-based;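 also: cell viability assay measuring growth inhibition of human IA-LM cells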
Description: SANGER: Inhibition of human IA-LM cell growth in a cell viability assay.

JVM-3 = type: functional, cell-based;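 also: growth inhibition of human JVM-3 cells, read out with a cell viability assay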
Description: SANGER: Inhibition of human JVM-3 cell growth in a cell viability assay.

TE-6 = type: functional, cell-based;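 also: growth inhibition of TE-6 cells, read out with a cell viability assay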
Description: SANGER: Inhibition of human TE-6 cell growth in a cell viability assay.

SHP77 = type: functional, cell-based, SHP-77;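 also: growth inhibition of human SHP-77 cells measured by a cell viability assay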
Description: SANGER: Inhibition of human SHP-77 cell growth in a cell viability assay.

DMS-114 = type: functional, cell-based
SW 954 = type: functional, cell-based;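 also: growth inhibition of SW954 human cancer cells, read out as cell viability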
Description: SANGER: Inhibition of human SW954 cell growth in a cell viability assay.

Measured: IC50

CCNc1cc(N[C@H]2CC[C@@H](O)CC2)nc(Nc2ccc3c(ccn3Cc3ccccc3)c2)n1
4.39 µM: TE-10
4.6 µM: BB30-HNC
2.95 µM: GI-1
0.242 µM: ETK-1
3.46 µM: DOHH-2
4.17 µM: 697
> 5.12 µM: all other assays above

C/C(O)=C(\C#N)C(=O)Nc1cc(Br)ccc1Br
> 16 µM: all assays above
